The values below are quoted from earlier work in patent US20260284040A1, “COMBINATION OF A PARP1 INHIBITOR AND A SELECTIVE ESTROGEN DEGRADER FOR TREATING CANCER” (ASTRAZENECA AB, priority 2023, published 2026).

For data set [1], the system named is human bone marrow progenitor cells. The settings on record: in vitro.
Data set [2] deals with ER+ cell lines and PDX models. The settings on record: wide range of ER+ cell lines and PDX models, including ESR1m models.
The conditions of data set [3]: in vivo.

Take `CCc1cc2ncc(CN3CCN(c4ccc(C(=O)NC)nc4)CC3)cc2[nH]c1=O` [AZD5305, 5-{4-[(7-ethyl-6-oxo-5,6-dihydro-1,5-naphthyridin-3-yl)methyl]piperazin-1-yl}-N-methylpyridine-2-carboxamide]: in data set [1], the “Effects on human bone marrow progenitor cells” value is listed as “reduced effects”.

As for `C[C@@H]1Cc2c(ccc3[nH]ncc23)[C@@H](c2ccc(NC3CN(CCCF)C3)cn2)N1CC(F)(F)F` [Camizestrant, N-[1-(3-fluoropropyl)azetidin-3-yl]-6-[(6S,8R)-8-methyl-7-(2,2,2-trifluoroethyl)-6,7,8,9-tetrahydro-3H-pyrazolo[4,3-]isoquinolin-6-yl]-pyridin-3-amine], the Antitumour activities result in data set [2] was “demonstrated antitumour activities”. In data set [3], the Oral bioavailability result is recorded as “orally bioavailable”.

Take `C[C@]12CC[C@@H]3c4ccc(O)cc4C[C@@H](CCCCCCCCC[S+]([O-])CCCC(F)(F)C(F)(F)F)[C@H]3[C@@H]1CC[C@@H]2O` (stereo partly shown) [fulvestrant]: the Oral bioavailability result in data set [3] is “not orally bioavailable”.
